This note sets out measurements from the supplement of paper PMC10307832.

Structures are written as SMILES.

In one test the test system is PC-3 [JPC-3]. The test can be described thus: relative viability (nuclei count vs DMSO), 5 days (fraction); higher = more cells survive. Particulars: first compound 2 µM. Put shortly: (§1)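 Nuclei were stained with Hoechst during a one-step fixation (final 0.05% Triton X-100, 1% formaldehyde, 1 ug/ml Hoechst) carried out 5 days after dosing, then counted on 4× images. The cells, lung cancer lines in 1536-well plates, had been dosed by pin tool the day after seeding with one drug alone or a fixed anchor-drug dose plus five library-drug doses (not always all listed) in √10 steps. Relative viability is the nuclei count in treated wells divided by that in vehicle wells, and each value is the median of duplicate plates.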
In the case of `COCC1(CO)C(=O)C2CCN1CC2` (stereo unspecified) [PRIMA-1MET] + C[C@]1(O)C[C@@H](c2nc(-c3ccc4ccc(-c5ccccc5)nc4c3)c3c(N)nccn32)C1 [Linsitinib] (partner 1 µM), the relative viability was 0.979.
As for `COCC1(CO)C(=O)C2CCN1CC2` (stereo unspecified) [PRIMA-1MET] + COc1cc2c(Oc3ccc(NC(=O)C4(C(=O)Nc5ccc(F)cc5)CC4)cc3F)ccnc2cc1OCCCN1CCOCC1 [Foretinib] (partner 0.25 µM), the relative viability came to 1.05.
Molecule `COCC1(CO)C(=O)C2CCN1CC2` (stereo unspecified) [PRIMA-1MET] + Cc1nc(NC(=O)N2CCC[C@H]2C(N)=O)sc1-c1ccnc(C(C)(C)C(F)(F)F)c1 [Alpelisib] (partner 2 µM) had a relative viability of 1.02.

The same test, now with this note: first compound 6.325 µM.
As to `COCC1(CO)C(=O)C2CCN1CC2` (stereo unspecified) [PRIMA-1MET] + CS(=O)(=O)N1CCN(Cc2cc3nc(-c4cccc5[nH]ncc45)nc(N4CCOCC4)c3s2)CC1 [Pictilisib] (partner 1 µM), the relative viability was 0.777.
For `COCC1(CO)C(=O)C2CCN1CC2` (stereo unspecified) [PRIMA-1MET] + CS(=O)(=O)CCNCc1ccc(-c2ccc3ncnc(Nc4ccc(OCc5cccc(F)c5)c(Cl)c4)c3c2)o1 [Lapatinib] (partner 2 µM), the relative viability amounted to 0.447.
In turn, `COCC1(CO)C(=O)C2CCN1CC2` (stereo unspecified) [PRIMA-1MET] + C[C@]1(O)C[C@@H](c2nc(-c3ccc4ccc(-c5ccccc5)nc4c3)c3c(N)nccn32)C1 [Linsitinib] (partner 1 µM) yielded a relative viability of 1.02.
Regarding `COCC1(CO)C(=O)C2CCN1CC2` (stereo unspecified) [PRIMA-1MET] + COc1cc2c(Oc3ccc(NC(=O)C4(C(=O)Nc5ccc(F)cc5)CC4)cc3F)ccnc2cc1OCCCN1CCOCC1 [Foretinib] (partner 0.25 µM), the relative viability was determined as 1.07.
In turn, `COCC1(CO)C(=O)C2CCN1CC2` (stereo unspecified) [PRIMA-1MET] + Cc1nc(NC(=O)N2CCC[C@H]2C(N)=O)sc1-c1ccnc(C(C)(C)C(F)(F)F)c1 [Alpelisib] (partner 2 µM) returned a relative viability of 1.07.

The same test, now with this note: first compound 20 µM.
In turn, `COCC1(CO)C(=O)C2CCN1CC2` (stereo unspecified) [PRIMA-1MET] + CS(=O)(=O)N1CCN(Cc2cc3nc(-c4cccc5[nH]ncc45)nc(N4CCOCC4)c3s2)CC1 [Pictilisib] (partner 1 µM) came in with a relative viability of 0.688.
Molecule `COCC1(CO)C(=O)C2CCN1CC2` (stereo unspecified) [PRIMA-1MET] + CS(=O)(=O)CCNCc1ccc(-c2ccc3ncnc(Nc4ccc(OCc5cccc(F)c5)c(Cl)c4)c3c2)o1 [Lapatinib] (partner 2 µM) registered a relative viability of 0.478.
In the case of `COCC1(CO)C(=O)C2CCN1CC2` (stereo unspecified) [PRIMA-1MET] + C[C@]1(O)C[C@@H](c2nc(-c3ccc4ccc(-c5ccccc5)nc4c3)c3c(N)nccn32)C1 [Linsitinib] (partner 1 µM), the relative viability turned out to be 0.91.
Turning to `COCC1(CO)C(=O)C2CCN1CC2` (stereo unspecified) [PRIMA-1MET] + COc1cc2c(Oc3ccc(NC(=O)C4(C(=O)Nc5ccc(F)cc5)CC4)cc3F)ccnc2cc1OCCCN1CCOCC1 [Foretinib] (partner 0.25 µM), the relative viability worked out at 0.935.
In turn, `COCC1(CO)C(=O)C2CCN1CC2` (stereo unspecified) [PRIMA-1MET] + Cc1nc(NC(=O)N2CCC[C@H]2C(N)=O)sc1-c1ccnc(C(C)(C)C(F)(F)F)c1 [Alpelisib] (partner 2 µM) gave a relative viability of 1.06.

Another test concerns SK-LU-1. The description is as above. The note with it: first compound 0.2 µM. The procedure, abridged: as §1
As to `COCC1(CO)C(=O)C2CCN1CC2` (stereo unspecified) [PRIMA-1MET] + CS(=O)(=O)N1CCN(Cc2cc3nc(-c4cccc5[nH]ncc45)nc(N4CCOCC4)c3s2)CC1 [Pictilisib] (partner 1 µM), the relative viability was 0.592.
Same read-out and setting: with `COCC1(CO)C(=O)C2CCN1CC2` (stereo unspecified) [PRIMA-1MET] + CS(=O)(=O)CCNCc1ccc(-c2ccc3ncnc(Nc4ccc(OCc5cccc(F)c5)c(Cl)c4)c3c2)o1 [Lapatinib] (partner 2 µM) the figure was 1.12; with `COCC1(CO)C(=O)C2CCN1CC2` (stereo unspecified) [PRIMA-1MET] + C[C@]1(O)C[C@@H](c2nc(-c3ccc4ccc(-c5ccccc5)nc4c3)c3c(N)nccn32)C1 [Linsitinib] (partner 1 µM), 1.24; with `COCC1(CO)C(=O)C2CCN1CC2` (stereo unspecified) [PRIMA-1MET] + COc1cc2c(Oc3ccc(NC(=O)C4(C(=O)Nc5ccc(F)cc5)CC4)cc3F)ccnc2cc1OCCCN1CCOCC1 [Foretinib] (partner 0.25 µM), 1.
As for `COCC1(CO)C(=O)C2CCN1CC2` (stereo unspecified) [PRIMA-1MET] + Cc1nc(NC(=O)N2CCC[C@H]2C(N)=O)sc1-c1ccnc(C(C)(C)C(F)(F)F)c1 [Alpelisib] (partner 2 µM), the relative viability amounted to 1.11.

The same test, now with this note: first compound 0.6325 µM.
The molecule `COCC1(CO)C(=O)C2CCN1CC2` (stereo unspecified) [PRIMA-1MET] + CS(=O)(=O)N1CCN(Cc2cc3nc(-c4cccc5[nH]ncc45)nc(N4CCOCC4)c3s2)CC1 [Pictilisib] (partner 1 µM) gave a relative viability of 0.549.
`COCC1(CO)C(=O)C2CCN1CC2` (stereo unspecified) [PRIMA-1MET] + CS(=O)(=O)CCNCc1ccc(-c2ccc3ncnc(Nc4ccc(OCc5cccc(F)c5)c(Cl)c4)c3c2)o1 [Lapatinib] (partner 2 µM) came in with a relative viability of 0.667.
For `COCC1(CO)C(=O)C2CCN1CC2` (stereo unspecified) [PRIMA-1MET] + C[C@]1(O)C[C@@H](c2nc(-c3ccc4ccc(-c5ccccc5)nc4c3)c3c(N)nccn32)C1 [Linsitinib] (partner 1 µM), the relative viability worked out at 1.03.
`COCC1(CO)C(=O)C2CCN1CC2` (stereo unspecified) [PRIMA-1MET] + COc1cc2c(Oc3ccc(NC(=O)C4(C(=O)Nc5ccc(F)cc5)CC4)cc3F)ccnc2cc1OCCCN1CCOCC1 [Foretinib] (partner 0.25 µM) yielded a relative viability of 0.863.
As to `COCC1(CO)C(=O)C2CCN1CC2` (stereo unspecified) [PRIMA-1MET] + Cc1nc(NC(=O)N2CCC[C@H]2C(N)=O)sc1-c1ccnc(C(C)(C)C(F)(F)F)c1 [Alpelisib] (partner 2 µM), the relative viability came to 0.918.

Staying with this test, now noted: first compound 2 µM.
Consider `COCC1(CO)C(=O)C2CCN1CC2` (stereo unspecified) [PRIMA-1MET] + CS(=O)(=O)N1CCN(Cc2cc3nc(-c4cccc5[nH]ncc45)nc(N4CCOCC4)c3s2)CC1 [Pictilisib] (partner 1 µM), for which the relative viability is 0.357.
For `COCC1(CO)C(=O)C2CCN1CC2` (stereo unspecified) [PRIMA-1MET] + CS(=O)(=O)CCNCc1ccc(-c2ccc3ncnc(Nc4ccc(OCc5cccc(F)c5)c(Cl)c4)c3c2)o1 [Lapatinib] (partner 2 µM), the relative viability was 0.61.
`COCC1(CO)C(=O)C2CCN1CC2` (stereo unspecified) [PRIMA-1MET] + C[C@]1(O)C[C@@H](c2nc(-c3ccc4ccc(-c5ccccc5)nc4c3)c3c(N)nccn32)C1 [Linsitinib] (partner 1 µM) gave a relative viability of 1.14.
Turning to `COCC1(CO)C(=O)C2CCN1CC2` (stereo unspecified) [PRIMA-1MET] + COc1cc2c(Oc3ccc(NC(=O)C4(C(=O)Nc5ccc(F)cc5)CC4)cc3F)ccnc2cc1OCCCN1CCOCC1 [Foretinib] (partner 0.25 µM), the relative viability is 0.885.
`COCC1(CO)C(=O)C2CCN1CC2` (stereo unspecified) [PRIMA-1MET] + Cc1nc(NC(=O)N2CCC[C@H]2C(N)=O)sc1-c1ccnc(C(C)(C)C(F)(F)F)c1 [Alpelisib] (partner 2 µM) displayed a relative viability of 1.04.

Staying with this test, now noted: first compound 6.325 µM.
In turn, `COCC1(CO)C(=O)C2CCN1CC2` (stereo unspecified) [PRIMA-1MET] + CS(=O)(=O)N1CCN(Cc2cc3nc(-c4cccc5[nH]ncc45)nc(N4CCOCC4)c3s2)CC1 [Pictilisib] (partner 1 µM) returned a relative viability of 0.697.
Turning to `COCC1(CO)C(=O)C2CCN1CC2` (stereo unspecified) [PRIMA-1MET] + CS(=O)(=O)CCNCc1ccc(-c2ccc3ncnc(Nc4ccc(OCc5cccc(F)c5)c(Cl)c4)c3c2)o1 [Lapatinib] (partner 2 µM), the relative viability was determined as 0.784.
In turn, `COCC1(CO)C(=O)C2CCN1CC2` (stereo unspecified) [PRIMA-1MET] + C[C@]1(O)C[C@@H](c2nc(-c3ccc4ccc(-c5ccccc5)nc4c3)c3c(N)nccn32)C1 [Linsitinib] (partner 1 µM) registered a relative viability of 1.06.
